ChEMBL document CHEMBL1201862, “PubChem BioAssay data set” (2004)
Each block holds one compound with its values, some of them ahead of it. The source made the active and inactive calls.

Key:
Assay type in all cases: functional
Hexokinase HKDC1 = Hexokinase HKDC1 (Homo sapiens, UniProt Q2TB90); assay: activation of HKDC1 glucose phosphorylation – biochemical, W721R variant, dose response (AID 504730)
Hexokinase-1 = Hexokinase-1 (Homo sapiens, UniProt P19367); assay: HK1 enzyme activation by HKDC1 hits – biochemical, selectivity assay for HKDC1 activator project, dose response (AID 504762)
Hexokinase-1, sequence (P19367 whole entry): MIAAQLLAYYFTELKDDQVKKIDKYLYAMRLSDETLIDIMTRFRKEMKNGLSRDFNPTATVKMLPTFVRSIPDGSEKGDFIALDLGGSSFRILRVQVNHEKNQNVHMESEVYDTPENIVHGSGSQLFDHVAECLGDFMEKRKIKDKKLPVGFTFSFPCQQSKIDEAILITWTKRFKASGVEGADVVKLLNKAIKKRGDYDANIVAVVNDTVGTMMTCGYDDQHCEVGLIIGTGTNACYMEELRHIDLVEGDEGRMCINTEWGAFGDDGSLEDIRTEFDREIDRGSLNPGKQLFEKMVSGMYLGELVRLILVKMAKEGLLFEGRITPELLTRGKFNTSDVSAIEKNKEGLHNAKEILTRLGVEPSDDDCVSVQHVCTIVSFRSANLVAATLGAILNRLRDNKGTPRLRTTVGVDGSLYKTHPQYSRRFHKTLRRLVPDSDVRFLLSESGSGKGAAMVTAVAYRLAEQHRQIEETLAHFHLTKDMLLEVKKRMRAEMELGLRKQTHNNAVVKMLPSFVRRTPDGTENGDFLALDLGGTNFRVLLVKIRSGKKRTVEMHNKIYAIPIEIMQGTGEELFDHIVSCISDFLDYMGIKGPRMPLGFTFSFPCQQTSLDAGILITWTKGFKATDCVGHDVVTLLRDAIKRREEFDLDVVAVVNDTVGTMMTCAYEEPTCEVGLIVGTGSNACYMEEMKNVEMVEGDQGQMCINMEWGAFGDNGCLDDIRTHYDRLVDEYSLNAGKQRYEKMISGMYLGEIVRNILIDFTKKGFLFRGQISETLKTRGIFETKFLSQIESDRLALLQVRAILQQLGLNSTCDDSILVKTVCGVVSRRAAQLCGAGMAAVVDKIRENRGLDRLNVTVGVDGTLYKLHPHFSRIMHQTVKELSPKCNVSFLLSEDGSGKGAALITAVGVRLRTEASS

[1] = molecular target: T1, Alkaline phosphatase, tissue-nonspecific isozyme (Homo sapiens, UniProt P05186); assay: TNAP enzyme inhibition by screening hits, dose response, selectivity assay for mouse IAP inhibitor project, biochemical, human TNAP, uHTS hits (AID 488906)
T1 sequence (P05186 whole entry): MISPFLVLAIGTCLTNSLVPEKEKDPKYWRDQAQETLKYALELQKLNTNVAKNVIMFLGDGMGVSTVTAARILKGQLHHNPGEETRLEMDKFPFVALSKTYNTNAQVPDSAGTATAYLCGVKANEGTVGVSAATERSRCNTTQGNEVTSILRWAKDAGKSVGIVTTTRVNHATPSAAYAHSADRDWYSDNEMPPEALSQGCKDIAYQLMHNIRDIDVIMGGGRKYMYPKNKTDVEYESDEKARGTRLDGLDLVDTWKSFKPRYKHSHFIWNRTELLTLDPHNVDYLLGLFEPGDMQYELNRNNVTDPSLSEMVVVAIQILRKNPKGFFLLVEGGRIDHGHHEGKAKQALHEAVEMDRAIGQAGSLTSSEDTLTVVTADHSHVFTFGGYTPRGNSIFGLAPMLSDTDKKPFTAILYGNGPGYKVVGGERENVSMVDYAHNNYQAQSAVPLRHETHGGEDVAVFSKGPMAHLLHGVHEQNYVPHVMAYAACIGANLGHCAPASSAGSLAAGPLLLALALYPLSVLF

[2] = molecular target: Intestinal-type alkaline phosphatase (Homo sapiens, UniProt P09923); assay: activation of human intestinal alkaline phosphatase – biochemical, dose response (AID 488873)
Intestinal-type alkaline phosphatase (Homo sapiens, UniProt P09923), sequence (P09923 whole entry): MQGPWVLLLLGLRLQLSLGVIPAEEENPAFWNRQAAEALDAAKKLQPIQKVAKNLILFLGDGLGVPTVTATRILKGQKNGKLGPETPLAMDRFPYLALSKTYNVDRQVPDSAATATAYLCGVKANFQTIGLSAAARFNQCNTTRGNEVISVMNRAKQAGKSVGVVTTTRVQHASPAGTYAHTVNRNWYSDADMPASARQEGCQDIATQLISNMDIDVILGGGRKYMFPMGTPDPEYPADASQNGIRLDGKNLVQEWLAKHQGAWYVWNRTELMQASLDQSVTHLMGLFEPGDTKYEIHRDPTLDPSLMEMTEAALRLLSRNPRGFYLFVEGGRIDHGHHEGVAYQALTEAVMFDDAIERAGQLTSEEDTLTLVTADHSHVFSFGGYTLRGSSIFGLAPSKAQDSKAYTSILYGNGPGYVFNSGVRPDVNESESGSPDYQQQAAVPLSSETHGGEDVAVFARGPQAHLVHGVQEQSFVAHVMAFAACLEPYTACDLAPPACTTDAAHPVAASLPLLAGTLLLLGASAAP

[3] = molecular target: Intestinal-type alkaline phosphatase (Mus musculus, UniProt P24822); assay: PubChem AID 488785
Intestinal-type alkaline phosphatase (Mus musculus, UniProt P24822), sequence (P24822 whole entry): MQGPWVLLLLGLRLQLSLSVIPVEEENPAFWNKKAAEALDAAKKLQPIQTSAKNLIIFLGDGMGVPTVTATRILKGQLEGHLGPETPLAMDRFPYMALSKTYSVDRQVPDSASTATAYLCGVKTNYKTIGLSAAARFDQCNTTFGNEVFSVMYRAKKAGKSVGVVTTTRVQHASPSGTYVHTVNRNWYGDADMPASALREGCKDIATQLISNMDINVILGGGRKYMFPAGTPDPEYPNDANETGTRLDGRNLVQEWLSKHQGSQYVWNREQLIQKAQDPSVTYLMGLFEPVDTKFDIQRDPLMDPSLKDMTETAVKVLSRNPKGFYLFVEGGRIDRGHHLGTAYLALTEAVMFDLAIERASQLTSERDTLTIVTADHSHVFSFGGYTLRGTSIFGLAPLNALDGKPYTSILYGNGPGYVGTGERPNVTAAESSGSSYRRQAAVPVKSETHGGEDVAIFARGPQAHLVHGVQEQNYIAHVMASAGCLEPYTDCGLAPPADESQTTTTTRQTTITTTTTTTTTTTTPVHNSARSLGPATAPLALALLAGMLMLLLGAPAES

[4] = molecular target: T2, Kappa-type opioid receptor (Homo sapiens, UniProt P41145)
T2 sequence (P41145 whole entry): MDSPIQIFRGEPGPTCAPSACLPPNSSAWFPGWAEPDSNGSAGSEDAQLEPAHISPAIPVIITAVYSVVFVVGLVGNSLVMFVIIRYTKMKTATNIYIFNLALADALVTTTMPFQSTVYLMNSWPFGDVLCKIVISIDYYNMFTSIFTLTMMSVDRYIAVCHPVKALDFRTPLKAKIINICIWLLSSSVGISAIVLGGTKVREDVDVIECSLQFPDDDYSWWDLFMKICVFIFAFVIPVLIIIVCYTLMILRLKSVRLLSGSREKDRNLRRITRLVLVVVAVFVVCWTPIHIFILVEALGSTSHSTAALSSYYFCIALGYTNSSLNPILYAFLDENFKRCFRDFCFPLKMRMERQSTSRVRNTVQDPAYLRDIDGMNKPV

[5] = molecular target: T2, Kappa-type opioid receptor; remark: listed apart in the source
[6] = molecular target: T3, Delta-type opioid receptor (Homo sapiens, UniProt P41143); assay: delta opioid receptor blockers – image-based, SAR follow-up (AID 2357)
T3 sequence (P41143 whole entry): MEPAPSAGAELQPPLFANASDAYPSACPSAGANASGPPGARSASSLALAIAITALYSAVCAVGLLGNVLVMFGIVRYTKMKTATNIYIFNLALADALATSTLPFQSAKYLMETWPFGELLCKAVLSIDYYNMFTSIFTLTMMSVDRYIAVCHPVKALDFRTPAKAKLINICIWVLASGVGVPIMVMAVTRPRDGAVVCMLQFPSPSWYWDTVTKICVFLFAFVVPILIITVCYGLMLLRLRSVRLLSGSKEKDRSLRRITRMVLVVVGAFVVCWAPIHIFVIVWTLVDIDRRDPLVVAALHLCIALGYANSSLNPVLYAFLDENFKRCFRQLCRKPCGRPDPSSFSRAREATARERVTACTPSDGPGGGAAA

Mu-type opioid receptor [7] = molecular target: T4, Mu-type opioid receptor (Homo sapiens, UniProt P35372); assay: mu opioid receptor activators, image-based, SAR follow-up (AID 2352)
T4 sequence (P35372 whole entry): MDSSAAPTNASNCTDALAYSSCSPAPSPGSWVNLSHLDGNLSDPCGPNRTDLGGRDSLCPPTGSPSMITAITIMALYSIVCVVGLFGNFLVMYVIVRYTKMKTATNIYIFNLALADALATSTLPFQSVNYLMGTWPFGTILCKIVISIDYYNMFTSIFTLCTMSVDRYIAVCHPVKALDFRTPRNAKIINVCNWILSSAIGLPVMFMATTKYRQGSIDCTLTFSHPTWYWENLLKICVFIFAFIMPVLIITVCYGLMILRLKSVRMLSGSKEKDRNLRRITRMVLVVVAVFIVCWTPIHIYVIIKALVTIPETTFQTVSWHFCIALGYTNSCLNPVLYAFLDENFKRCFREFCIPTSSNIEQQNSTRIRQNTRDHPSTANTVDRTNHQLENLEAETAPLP

[8] = molecular target: T3, Delta-type opioid receptor; assay: HTS Image-Based Screen for Antagonists of the DOR Receptor. [Related pubchem assays (depositor defined):AID1777, AID1785, AID1786, AID2133]
Mu-type opioid receptor [9] = molecular target: T4, Mu-type opioid receptor; assay: mu opioid receptor blockers – image-based, SAR follow-up (AID 2420);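 also: compounds added before stimulation of receptor with agonist DAMGO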
[10] = molecular target: T2, Kappa-type opioid receptor; remark: listed apart in the source
[11] = molecular target: T3, Delta-type opioid receptor; assay: HTS Image-Based Screen for Agonists of the DOR Receptor. [Related pubchem assays (depositor defined):AID1777, AID1786, AID2133]
[12] = molecular target: T2, Kappa-type opioid receptor; assay: kappa opioid receptor activation potency – imaging, image-based, SAR follow-up (AID 2359)
[13] = molecular target: T2, Kappa-type opioid receptor; assay: SAR analysis of small molecule agonists of the kappa opioid receptor via a luminescent beta-arrestin assay. [Related pubchem assays (depositor defined):AID1777, AID1786, AID1966, AID2133, AID2136, AID2348, AID2352, AID2357, AID2359, AID2370, AID2420, AID2478, AID2491, AID2492, AID2493, AID2497, AID2498, AID2500, AID449737, AID488822, AID488842]
[14] = molecular target: T3, Delta-type opioid receptor; assay: DOR agonists, SAR follow-up, image-based (AID 2370)
[15] = molecular target: T2, Kappa-type opioid receptor; assay: kappa opioid receptor blockers, image-based, SAR follow-up (AID 2348)
Mu-type opioid receptor [16] = molecular target: T4, Mu-type opioid receptor; assay: HTS Image-Based Screen for Agonists of the MOR Receptor. [Related pubchem assays (depositor defined):AID1777, AID1785, AID1786, AID2133]
[17] = molecular target: T2, Kappa-type opioid receptor; assay: SAR analysis of small molecule agonists of the kappa opioid receptor via a luminescent beta-arrestin assay - Set 3. [Related pubchem assays (depositor defined):AID1777, AID1785, AID1786, AID1966, AID2133, AID2136, AID2284, AID2500]

Hexokinase HKDC1, sequence (Q2TB90 whole entry): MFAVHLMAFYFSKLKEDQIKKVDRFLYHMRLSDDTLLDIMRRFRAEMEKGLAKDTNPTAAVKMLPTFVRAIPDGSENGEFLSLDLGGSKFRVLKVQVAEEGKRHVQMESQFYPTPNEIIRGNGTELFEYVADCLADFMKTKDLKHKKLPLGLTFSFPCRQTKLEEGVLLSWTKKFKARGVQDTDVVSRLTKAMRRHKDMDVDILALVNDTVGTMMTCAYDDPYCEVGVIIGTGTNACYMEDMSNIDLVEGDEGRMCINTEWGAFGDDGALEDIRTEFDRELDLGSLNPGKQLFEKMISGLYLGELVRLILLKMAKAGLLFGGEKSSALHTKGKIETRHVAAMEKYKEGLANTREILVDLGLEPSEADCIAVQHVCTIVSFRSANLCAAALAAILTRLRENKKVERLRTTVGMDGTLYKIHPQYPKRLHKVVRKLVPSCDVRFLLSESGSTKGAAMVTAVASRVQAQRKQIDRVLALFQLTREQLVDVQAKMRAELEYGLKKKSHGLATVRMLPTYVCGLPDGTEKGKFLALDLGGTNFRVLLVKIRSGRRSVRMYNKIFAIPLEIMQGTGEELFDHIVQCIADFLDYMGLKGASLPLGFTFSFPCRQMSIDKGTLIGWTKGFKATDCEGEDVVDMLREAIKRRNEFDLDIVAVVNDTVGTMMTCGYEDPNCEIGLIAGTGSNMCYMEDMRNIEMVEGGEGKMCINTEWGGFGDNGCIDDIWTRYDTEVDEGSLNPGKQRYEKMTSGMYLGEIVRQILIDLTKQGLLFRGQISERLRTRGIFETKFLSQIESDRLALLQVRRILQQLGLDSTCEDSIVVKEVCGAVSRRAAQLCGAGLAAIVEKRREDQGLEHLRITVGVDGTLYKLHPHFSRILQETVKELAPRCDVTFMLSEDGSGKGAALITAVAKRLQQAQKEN

EC50 (Hexokinase HKDC1): > 80 µM (inactive)
EC50 (Hexokinase-1): > 80 µM (inactive)
Compound: CC12CCC(C(=O)N/N=C/c3ccc(O)cc3O)(OC1=O)C2(C)C (centres undefined)

IC50 [1]: 7.87 µM (active)
EC50 [2]: > 100 µM (inactive)
IC50 [3]: 9.88 µM (active)
Compound: CN(CC(=O)Nc1cccc(Cl)c1)S(=O)(=O)c1ccc2[nH]c(=O)oc2c1

IC50 [4]: > 5 µM (inactive)
EC50 [5]: < 0.5 µM
IC50 [6]: > 32 µM (inactive)
EC50 (Mu-type opioid receptor [7]): > 32 µM (inactive)
IC50 [8]: > 32 µM (inactive)
IC50 (Mu-type opioid receptor [9]): > 32 µM (inactive)
EC50 [10]: 0.103 µM
EC50 [11]: > 32 µM (inactive)
EC50 [12]: < 0.06 µM (active)
EC50 [13]: 0.116 µM (active)
EC50 [14]: > 32 µM (inactive)
IC50 [15]: > 32 µM (inactive)
EC50 (Mu-type opioid receptor [16]): > 32 µM (inactive)
Compound: O=C(c1ccccn1)N(Cc1cccs1)C1(C(=O)NC2CCCCC2)CCCCC1

EC50 [17]: > 20 µM (inactive)
Compound: FC(F)(F)c1cc(CSc2nnc(-c3ccncc3)n2Cc2ccco2)ccc1Cl
